Values joined by “and” are separate entries in the source; they are usually repeats but may differ in a detail not shown here. Identical values can stand only once.
Columns and labels:
SH-SY5Y cells [1] = test: ROS intracellular levels, carboxy-H2DCFDA; type: cell-based, human
Protocol: Next, the capacity of S. tubulifera metabolites to decrease ROS intracellular levels was evaluated (Figure 4). […] Regarding the oxidative stress model, H2O2 augmented the levels of oxidant molecules up to 125.1 ± 2.4% (p < 0.01) and the known antioxidant Vit E, used as a positive control, induced a reduction in ROS release of 24% with respect to cells treated only with H2O2 (p < 0.05).
Figure 4 ROS intracellular levels after treatment with compounds. Furanoditerpenes were added for 6 h in the absence and presence of 150 μM H2O2. Then, the ROS content was measured with the fluorescent dye 5-(and-6)-carboxy-2′,7′-dichlorodihydrofluorescein diacetate (carboxy-H2DCFDA). Results from (a) 1, (b) 2, (c) 3, (d) 4, and (e) 5. Vitamin E (Vit E) at 25 μM was used as a positive control. Data expressed as the percentage of untreated control cells. Mean ± SEM of three experiments performed in triplicate. Statistical differences determined by one-way ANOVA test followed by Dunnett’s post hoc test. ^##p < 0.01 compared to control cells. *p < 0.05, **p < 0.01, and ***p < 0.01 compared to H2O2 control.
(§1) For these experiments, cells were seeded in 384-well plates and treated as described above. All of the assays were carried out as previously described.[15]
The fluorescent dye 5-(and-6)-carboxy-2′,7′-dichlorodihydrofluorescein diacetate (carboxy-H2DCFDA) was used to evaluate ROS levels. After treatment with compounds and H2O2, cells were washed twice with serum-free medium. Next, cells were loaded with 20 μM carboxy-H2DCFDA dissolved in serum-free medium, and the plate was incubated for 1 h at 37 °C and 300 rpm. Then, 100 μL of PBS were added to each well for 30 min at 37 °C and 300 rpm. After this incubation, the fluorescence was read at […].

CypD = CypD expression by Western blot
Description: (b) CypD expression after treatment with S. tubulifera metabolites. (c) Effect of compounds on the CypD expression under oxidative stress conditions. […] Protein band expression was normalized by actin levels. Results are mean ± SEM of three replicates carried out in duplicate. Data expressed as the percentage of untreated control cells and H2O2 control. Values compared by one-way ANOVA and Dunnett’s tests. ^#p < 0.05 and ^##p < 0.01 compared to control cells. *p < 0.05 and **p < 0.01 compared to cells treated with H2O2 alone.
In this context, the expression of this protein was analyzed after treatment with compounds. CypD cytosolic levels were evaluated after treatment with 1–5 alone for 6 h and after the coaddition of diterpenes and H2O2 to get a complete insight into diterpene mitochondria-related effects.
SH-SY5Y cells were cultured in 12-well plates at 1 × 10^6 cells per well and allowed to settle down for 24 h.
Cells were washed twice with ice-cold PBS, and a hypotonic solution was added (20 mM tris–HCl pH 7.4, 10 mM NaCl, and 3 mM MgCl2, containing phosphatase and protease inhibitor cocktail). Cells were incubated for 15 min on ice and centrifuged at 3000 rpm and 4 °C for 15 min. The supernatant was collected as the cytosolic fraction, and protein concentration was quantified with the Direct Detect instrument (Merck Millipore, Darmstadt, Germany).[15]
Electrophoresis was resolved in 4–20% sodium dodecyl sulfate polyacrylamide gels (Biorad, Hercules, CA), containing 15 μg of cytosolic protein from each sample. The Trans-Blot semidry transfer cell (Biorad) was used to transfer proteins to poly(vinylidene difluoride) (PVDF) membranes (Merck Millipore). Snap i.d. system (Merck Millipore) was used for membrane blocking and antibody incubation. […] Immunoreactive bands were detected with Supersignal West Pico Luminiscent Substrate and Supersignal West Femto Maximum Sensitivity Substrate. Diversity GeneSnap system and software (Syngene, Cambridge, U.K.) were used for protein band detection. Experiments were performed three independent times in duplicate.

ERK = ERK activation (phosphorylated/total) by Western blot; type: cell-based, human
Description: Considering that CypD has several upstream regulators, which are also considered mPTP modulators,[10] the study was continued by evaluating if S. tubulifera metabolites were affecting the activation of two kinases involved in the control of mPTP by CypD, ERK, and GSK3β (Figure 7). Regarding ERK, its activation has been related to the inhibition of CypD-mediated mPTP opening. Therefore, the phosphorylated state of residues implicated in ERK activation (Thr202, Tyr204, Thr185, and Tyr187) was determined, as well as its total levels. Any of the compounds were able to activate ERK under neither physiological nor oxidative conditions (Figure 7a,b). However, 3 inhibited the kinase in both situations, with levels of 78.6 ± 4.8% (p < 0.05) and 67.3 ± 9.4% (p < 0.01), respectively. […] On the other hand, GSK3β inhibition results in a reduction in mPTP opening since the kinase binds to CypD, decreasing its interaction with mPTP components.[10] In the case of GSK3β, Ser9 phosphorylation was determined, a residue implicated in kinase inhibition (Figure 7c,d).
Figure 7 Analysis of compound effects on CypD upstream regulators. SH-SY5Y cells were treated with 1–5 at 0.001 μM for 6 h, and their effects on kinase activation were evaluated. […] Kinase expression was calculated as the ratio between phosphorylated and total levels. […] Data expressed as the percentage of untreated control cells and H2O2 control. […]

Human CypA = Human CypA (Homo sapiens, UniProt P62937); test: Surface plasmon resonance binding to immobilized CypA; conditions: for Kd: CypA, SPR, 1:1 Langmuir model, PBS-T pH 7.2, 24 °C; for kon: read-out: ka, CypA
Protocol: The protein was immobilized on the sensor surface by amino coupling, as described above (Figure S7), and compounds at several concentrations were added. The same conditions set for CypD were used for CypA experiments, with a flow rate of 20 μL/min and PBS-T (pH 7.2) as the running buffer.
Figure 9 Binding of compounds to CypA measured by surface plasmon resonance. The left panels present association curves obtained by the addition of compounds over immobilized CypA and subtraction of their respective vehicle signal. The right panels show fitting curves for equilibrium binding. Representative graphs of one independent replicate. […] Kinetic equilibrium dissociation constants (KD) and fitting curves were obtained with TraceDrawer software.
(§2) SPR measurements were performed using the MP-SPR Navi 210A VASA instrument with SPR Navi Control software (BioNavis, Tampere, Finland). All of the analyses were carried out in three-dimensional (3D) carboxymethyl dextran hydrogel-coated (CMD-3DM) sensors (BioNavis). PBS, 0.05% Tween (pH 7.2) was used as the running buffer for sensor activation, protein immobilization, and analyte injection. All buffers were degassed and filtered by 0.22 μm before use. The flow rate and temperature were set at 20 μL/min and 24 °C, respectively. A commercial Amine Coupling Kit (Xantec bioanalytics GmbH, Düsseldorf, Germany) was used for sensor activation and Cyps immobilization. The chip surface was preconditioned with 2 M NaCl and 0.01 M NaOH. Then, the surface was activated by the addition of 0.2 M 1-ethyl-3-(3-dimethylaminopropyl)carbodiimide hydrochloride (EDC) and 0.05 M N-hydroxysuccinimide (NHS). After activation, 50 μg/mL of CypA or CypD dissolved in 5 mM sodium acetate buffer (pH 4.5) were injected for immobilization on the sensor surface. […] Compound injections were performed in serial mode, and the reference channel signal was subtracted from the analyte sensorgram. Data were processed with MP-SPR Navi Data Viewer (BioNavis), and KD values were obtained using the 1:1 Langmuir model with mass transport considerations of TraceDrawer software (RidgeView Instruments Ab, Uppsala, Sweden). All of the experiments were performed three independent times.

human CypD = human CypD (Homo sapiens, UniProt P30405); test: Surface plasmon resonance binding to immobilized CypD; conditions: for kon: read-out: ka, CypD
Protocol: With this objective, surface plasmon resonance (SPR) experiments were performed. CypD was immobilized in the sensor surface as a ligand, and 1–5 were injected as analytes. […] For immobilization, amine groups were activated with 1-ethyl-3-(3-dimethylaminopropyl)carbodiimide hydrochloride (EDC) and N-hydroxysuccinimide (NHS) and 50 μg/mL of human CypD dissolved in 5 mM sodium acetate (pH 4.5) was added. […] All of the assays were carried out with phosphate-buffered saline (PBS)—0.05% Tween (pH 7.2) as the running buffer, with a flow rate of 20 μL/min at 24 °C.
The left panels present association curves obtained by the addition of compounds over immobilized CypD and subtraction of their respective solvent control. The right panels show fitting curves for equilibrium binding. Representative graphs of one independent replicate. […] All injections were performed using PBS, 0.05% Tween (pH 7.2) as the running buffer. Kinetic equilibrium dissociation constants (KD) and fitting curves were obtained with TraceDrawer software.
as §2

SH-SY5Y cells [2] = test: GSH content, Thiol Tracker Violet; type: cell-based, human; conditions: for GSH content: 150 μM H2O2, 6 h, % of untreated control cells
Protocol: To confirm the antioxidant properties of S. tubulifera compounds, the levels of the most important nonenzymatic antioxidant of cells, glutathione (GSH), were assessed. […] Regarding diterpene 2, an increase in the nonenzymatic antioxidant was observed when cells were cotreated with H2O2 and this compound at 0.001 and 1 μM (p < 0.05) (Figure 5b). No effects were found after the addition of 3 (Figure 5c), but 4 and 5 presented interesting results (Figure 5d,e).
Figure 5 Effect of S. tubulifera metabolites in the GSH content of human neuroblastoma cells. SH-SY5Y cells were treated with compounds for 6 h with and without 150 μM H2O2. GSH levels were monitored with Thiol Tracker Violet dye. (a) Compound 1, (b) compound 2, (c) compound 3, (d) compound 4, and (e) compound 5 results. Vitamin E (Vit E) at 25 μM was used as a positive control. Mean ± SEM of three experiments performed in triplicate. Data presented as the percentage of untreated control cells and compared by one-way ANOVA and Dunnett’s tests. ^##p < 0.01 compared to control cells. *p < 0.05 compared to cells treated with H2O2 alone.
as §1
Thiol Tracker Violet was used to measure intracellular GSH levels, following the manufacturer’s instructions. Briefly, human neuroblastoma cells were rinsed twice with PBS and the fluorescence dye at 10 μM was added. The plate was incubated for 30 min at 37 °C and 300 rpm, and the fluorescence was measured at 404 nm excitation and 526 nm emission in a plate reader. All experiments were performed three independent times in triplicate.

[3] = tested on: mitochondrial permeability transition pore (mPTP); conditions: 0.25 h, 0.001 µM
Protocol: (§3) SH-SY5Y cells were treated for 15 min with 1–5, and 1 mM tert-butyl hydroperoxide (TBHP) was used to open the pore. Cells were loaded with calcein-AM, which accumulates in cytosol and cell compartments and with CoCl2 that quenches cytosolic fluorescence but not the mitochondrial signal.[17] Then, fluorescence was analyzed by flow cytometry (Figure 6a). […] (a) Analysis of mPTP opening. Cells were treated with compounds at 0.001 μM for 15 min, and pore opening was induced with 1 mM TBHP. Calcein-AM and CoCl2 were used to measure mPTP aperture by flow cytometry. […] Values are presented as the percentage of control cells. Data are mean ± SEM of three independent experiments. Statistical differences determined by one-way ANOVA and Dunnett’s tests. ^###p < 0.001 compared to control cells. *p < 0.05 and **p < 0.01 compared to cells treated only with TBHP.
(§4) The inhibition of mPTP by compounds was determined with the MitoProbe Transition Pore Assay Kit, as previously described.[21] For this assay, cells were seeded in 12-well plates at 5 × 10^5 cells per well and allowed to grow for 24 h. Then, SH-SY5Y cells were detached with Detachin solution (Genlatis, San Diego), washed with PBS, and resuspended in PBS buffer with 0.6 mM CaCl2. Cells were loaded with 0.01 μM calcein-AM and incubated at 37 °C for 15 min. Then, 0.4 mM CoCl2 and compounds at 0.001 μM were added and cells were incubated for 15 min at 37 °C. After this incubation, cells were centrifuged, resuspended in 100 μL of calcium-free PBS, and kept on ice. Finally, TBHP at 1 mM was added for 3 min to the cells to induce the pore opening. […] The fluorescence of 10 000 events was analyzed with IDEAS Application vs 6.0 (Amnis Corporation, Luminex Corp).

[4] = tested on: mitochondrial permeability transition pore (mPTP); test: mPTP opening, calcein-AM/CoCl2 flow cytometry; conditions: 0.001 μM, 15 min pretreatment, TBHP 3 min
Protocol: as §3, §4

human CypD, sequence (P30405 30-207): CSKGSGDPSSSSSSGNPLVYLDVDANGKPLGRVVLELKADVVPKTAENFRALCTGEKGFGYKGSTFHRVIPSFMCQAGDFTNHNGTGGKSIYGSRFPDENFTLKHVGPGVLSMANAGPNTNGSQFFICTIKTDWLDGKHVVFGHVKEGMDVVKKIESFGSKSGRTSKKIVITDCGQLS
Human CypA, sequence (P62937 whole entry): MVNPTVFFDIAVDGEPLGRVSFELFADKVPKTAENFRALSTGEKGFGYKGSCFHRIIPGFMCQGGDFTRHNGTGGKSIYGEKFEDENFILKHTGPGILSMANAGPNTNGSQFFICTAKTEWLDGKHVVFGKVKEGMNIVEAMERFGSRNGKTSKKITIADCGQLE

Row | Compound | effect on ROS content (SH-SY5Y cells [1]; cotreatment with 150 μM H2O2, 6 h, all four concentrations 0.001-1 μM) | effect on CypD expression (CypD; 0.001 μM) | ERK activation (phosphorylated/total) (ERK; compound 0.001 μM + 150 μM H2O2, 6 h, % of H2O2 control) | ERK activation (phosphorylated/total) (ERK; compound alone 0.001 μM, 6 h, % of untreated control cells) | Kd (Human CypA) | kon (Human CypA) | Kd (human CypD) | kon (human CypD) | effect on GSH content (SH-SY5Y cells [2]; compound alone and with 150 μM H2O2, 6 h) | calcein fluorescence (mPTP opening) [3] | inhibition of mPTP opening after oxidative injury [4] | CypD expression under oxidative damage (CypD; compound 0.001 μM + 150 μM H2O2, 6 h, % of H2O2 control cells) | maximum SPR signal, CypA (Human CypA) | selectivity between CypD and CypA (KD values) (human CypD; SPR, CypD versus CypA) | GSH content (SH-SY5Y cells [2]; compound 0.001 μM) | GSH content (SH-SY5Y cells [2]; compound 0.1 μM) | reduction in ROS release with respect to cells treated only with H2O2 (SH-SY5Y cells [1]; Vit E 25 μM, 150 μM H2O2, 6 h)
1 | CC1=C(O)C(=O)C[C@]2(C)[C@H]3CCc4cocc4[C@]3(C)CC[C@@H]12 [Compound 3] | diminished ROS levels | did not affect CypD expression | 67.3 ± 9.4% | 78.6 ± 4.8% | 6.39 µM and 6.4 µM | 3190 M⁻¹ s⁻¹ | 7 ± 0.04 µM | 3750 M⁻¹ s⁻¹ | No effects |  |  |  |  |  |  |  | 
2 | C[C@]12C=C(O)C(=O)[C@](C)(CO)[C@@H]1CC[C@@]1(C)c3cocc3CC[C@H]21 [Compound 5, spongian diterpene 17] |  |  |  |  | 4.34 µM and 4.3 µM | 3590 M⁻¹ s⁻¹ | 2.97 ± 0.01 µM | 10000 M⁻¹ s⁻¹ |  | 90.3 ± 5.3% | able to inhibit mPTP opening | about 54% | 13.6 mdeg | selectivity toward the mitochondrial isoform | 110.9 ± 10.0% | 118.9 ± 12.0% | 
3 | Vitamin E [Vit E, reference compound] |  |  |  |  |  |  |  |  |  |  |  |  |  |  |  |  | 24%

Source: publication PMC9686139, “Furanoditerpenes from Spongia (Spongia) tubulifera Display Mitochondrial-Mediated Neuroprotective Effects by Targeting Cyclophilin D” (ACS Chemical Neuroscience, 2022)
